Measured values: patent US20250066349A1 (Prothena Biosciences Limited, priority 2021, published 2025)

Molecular target: DYRK1A (Homo sapiens (Human), UniProt Q13627)
Test: DYRK1A Inhibition Assay
Format: biochemical
Conditions: Compounds of Formula (I); DYRK1A 1 nM, ATP 20 μM, Ser/Thr 18 peptide 2 μM, 90 minutes; read-out: DYRK1 IC50
Method: DYRK1A—Invitrogen #PV4105
• Ser/Thr 18 peptide—Invitrogen #PR8227U • Phos-Ser/Thr 18 peptide—Invitrogen #PR8229U • Assay plate—PerkinElmer #6007279 • ATP—Sigma #A7699-5G • Development reagent A—Invitrogen #PR5194B • Development buffer—Invitrogen #PR4876B Compound preparation • 1. Test compounds were diluted to 1 mM in DMSO • 2. Stock was further diluted 3-fold using Echo platform • 3. 100 nL of DMSO into Columns 1 and 24 and 100 nL of compounds dilutions to Columns 2-23 in a plate.
• 1. Add 5 μL enzyme & substrate mixture to each well in Column 2-23 and A24-H24 wells of the 384-well assay plate; • 2. Add 5 μL 0% Phosphorylation control to A1-H1 and I24-P24 wells of the assay plate; • 3. Add 5 μL 100% Phosphorylation control to I1-P1 wells of the assay plate; • 4. Spin the assay plate (1000 rpm, 1 minute @23° C.); • 5. Incubate enzyme with compounds for 15 minutes at 23° C.; • 6. Add 5 μL ATP solution to each well of the assay plate; • 7. Spin the plate (1000 rpm, 1 minute @23° C.); • 8. Incubate the assay plate for 90 minutes at 23° C.; • 9. Add 10 μL Development reagent A to each well of the assay plate; • 10. Centrifuge the plate at 1000 rpm about 15 seconds and seal a film over assay plate. Incubate the assay plate for 30 minutes at 23° C. • 11. Read assay plates on Envision (see Tables A-D).
Final Compound Concentrations
• Assay buffer: 50 mM Hepes pH7.5, 10 mM MgCl2, 1 mM EDTA, 0.01% Brij-35 • DYRK1A: 1 nM • ATP: 20 μM • Ser/Thr 18 peptide: 2 μM • Reaction time: 90 minutes

Compound	IC50
Cc1c(-c2cccc(C(=O)O)c2)[nH]c2ncc3ccncc3c12 [Compound 52, 3-(9-methyl-7H-pyrrolo[2,3-c][2,6]naphthyridin-8-yl)benzoic acid]	100 to 1000 nM
Cc1c(-c2cccnc2)[nH]c2ncc3cnccc3c12 [Compound 53]	100 to 1000 nM
CN1CCC(c2c(C(F)(F)F)[nH]c3ncc4cc(-c5cnco5)ccc4c23)CC1 [Compound 57, 5-(1-(1-methylpiperidin-4-yl)-2-(trifluoromethyl)-3H-pyrrolo[2,3-c]isoquinolin-7-yl)oxazole]	> 1000 nM
Cn1ccc2c3cc(-c4cnc(C#CC5CCOCC5)s4)ccc3cnc21 [Compound 60]	10 to 100 nM
CN1CCC(C#Cc2ncc(-c3ccc4cnc5c(ccn5C)c4c3)s2)CC1 [Compound 62, 5-(3-methyl-3H-pyrrolo[2,3-c]isoquinolin-8-yl)-2-((1-methylpiperidin-4-yl)ethynyl)thiazole]	10 to 100 nM
Cc1cc2c(ncc3ccc(-c4cnc(C#CC5CCOCC5)s4)cc32)[nH]1 [Compound 64]	10 to 100 nM
O[C@H]1CCN(c2cncc(-c3ccc4cnc5[nH]c(C6CCC6)cc5c4c3)c2)C1 [Compound 69]	10 to 100 nM
O[C@@H]1CCN(c2cncc(-c3ccc4cnc5[nH]c(C6CCC6)cc5c4c3)c2)C1 [Compound 70]	10 to 100 nM
O=C(O)c1ccc2c(cnc3c2cnn3CC2CCOCC2)c1 [Compound 71]	100 to 1000 nM

Further lines, results first:

IC50	Compound
10 to 100 nM	Cn1cc(-c2ccc3cnc4c(c3c2)c([C@H]2CC[C@@H](N(C)C)CC2)cn4C)cn1 [Compound 49, (1s,4s)-N,N-dimethyl-4-(3-methyl-8-(1-methyl-1H-pyrazol-4-yl)-3H-pyrrolo[2,3-c]isoquinolin-1-yl)cyclohexan-1-amine]
10 to 100 nM	Cn1cc(-c2ccc3cnc4c(c3c2)c([C@H]2CC[C@H](N(C)C)CC2)cn4C)cn1 [Compound 50, (1r,4r)-N,N-dimethyl-4-(3-methyl-8-(1-methyl-1H-pyrazol-4-yl)-3H-pyrrolo[2,3-c]isoquinolin-1-yl)cyclohexan-1-amine]
≤ 10 nM	Cc1c(C2CCN(CCF)CC2)[nH]c2ncc3ccc(-c4cnn(C)c4)cc3c12 [Compound 54, 2-(1-(2-fluoroethyl)piperidin-4-yl)-1-methyl-8-(1-methyl-1H-pyrazol-4-yl)-3H-pyrrolo[2,3-c]isoquinoline]
≤ 10 nM	Cc1c(C2CCN(CC(F)F)CC2)[nH]c2ncc3ccc(-c4cnn(C)c4)cc3c12 [Compound 55, 2-(1-(2,2-difluoroethyl)piperidin-4-yl)-1-methyl-8-(1-methyl-1H-pyrazol-4-yl)-3H-pyrrolo[2,3-c]isoquinoline]
≤ 10 nM	Cc1c(C2CCN(CC(C)(C)O)CC2)[nH]c2ncc3ccc(-c4cnn(C)c4)cc3c12 [Compound 56, 2-methyl-1-(4-(1-methyl-8-(1-methyl-1H-pyrazol-4-yl)-3H-pyrrolo[2,3-c]isoquinolin-2-yl)piperidin-1-yl)propan-2-ol]
10 to 100 nM	Cn1cc(-c2ccc3cnc4ncn(C5CCC5)c4c3c2)cn1 [Compound 58, 1-cyclobutyl-8-(1-methyl-1H-pyrazol-4-yl)-1H-imidazo[4,5-c]isoquinoline]
≤ 10 nM	C(#CC1CCOCC1)c1ncc(-c2ccc3cnc4[nH]ccc4c3c2)s1 [Compound 59]
≤ 10 nM	CN1CCC(C#Cc2ncc(-c3ccc4cnc5[nH]ccc5c4c3)s2)CC1 [Compound 61, 2-((1-methylpiperidin-4-yl)ethynyl)-5-(3H-pyrrolo[2,3-c]isoquinolin-8-yl)thiazole]
≤ 10 nM	Cc1c[nH]c2ncc3ccc(-c4cnc(C#CC5CCOCC5)s4)cc3c12 [Compound 63]
≤ 10 nM	O[C@H]1CCN(c2cncc(-c3ccc4cnc5[nH]cc(C6CCC6)c5c4c3)c2)C1 [Compound 66, (S)-1-(5-(1-cyclobutyl-3H-pyrrolo[2,3-c]isoquinolin-8-yl)pyridin-3-yl)pyrrolidin-3-ol]
≤ 10 nM	O[C@@H]1CCN(c2cncc(-c3ccc4cnc5[nH]cc(C6CCC6)c5c4c3)c2)C1 [Compound 67, (R)-1-(5-(1-cyclobutyl-3H-pyrrolo[2,3-c]isoquinolin-8-yl)pyridin-3-yl)pyrrolidin-3-ol]
